According to PMC12751012, “Nanoscale Direct-to-Biology Optimization and Structural Insights into Selective S. aureus TrmD Inhibitors” (Journal of Medicinal Chemistry, 2025):

The molecules below were run against T1, S. aureus TrmD (Staphylococcus aureus, UniProt Q2FZ43) (assay: nanoSAR direct-to-biology FP displacement screening of crude triazoles). Conditions: crude triazole at 1 μM, assuming full conversion; 500 nM TrmD, 10 nM tracer 4.
T1 construct: made in house; host or cells: E. coli BL21
T1 sequence (Q2FZ43 1-245): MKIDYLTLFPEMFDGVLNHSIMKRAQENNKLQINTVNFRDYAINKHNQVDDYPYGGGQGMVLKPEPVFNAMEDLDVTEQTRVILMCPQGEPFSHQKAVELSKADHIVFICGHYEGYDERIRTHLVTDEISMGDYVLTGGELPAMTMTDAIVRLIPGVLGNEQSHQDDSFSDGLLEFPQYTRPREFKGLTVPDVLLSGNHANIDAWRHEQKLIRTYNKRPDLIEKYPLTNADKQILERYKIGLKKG
Type: binding
From the text: Next, we conducted an S. aureus TrmD-targeting nanoSAR study. For this, alkyne 7 was reacted on a 96 nmol scale with an in-house diversity-oriented azide library (N = 320, mean pairwise Tanimoto similarity = 0.11) designed to cover a large chemical fragment space, generating a panel of 320 crude triazoles ready for FP assay investigation. The composition of the azide library is designed to be chemically diverse in several categories, including physicochemical properties such as polar surface area, lipophilicity, and the number of hydrogen bond donors and acceptors, as well as structural features like the number of aromatic rings (Figure S23). A complete list of chemical structures included in the azide library can be found in Table S4. In situ reaction conditions for CuAAC were adapted from Gehrtz et al., utilizing CuSO4, which is reduced in situ to Cu(I) by sodium ascorbate and stabilized by TBTA. Degassed water and DMSO (1:1) were used as solvents to prevent the oxidation from Cu(I) to Cu(II). For the synthesis of the triazole library, a master mix was prepared, containing all reaction components except the azides. All reactions were started by the addition of the respective azide in 24 μL at a final product concentration of 4 mM (96 nmol). Reaction mixtures were incubated for 16 h at room temperature and under an argon atmosphere in sealed 96-well plates.
For FP assay screening, we used 500 nM of S. aureus TrmD and 10 nM of tracer 4 in a total volume of 40 μL in 96-well plates. We performed control measurements and defined 10 nM of tracer 4 in buffer as 100% displacement and the DMSO control as 0% tracer displacement. […] The results of the FP screening were visualized in a waterfall plot and plate-based heatmaps (Figure , Figure S3).
Fluorescence polarization (FP) assays were performed as follows. The assays for H. influenzae TrmD have been described previously. All assays were conducted in technical triplicate using black 96-well half area plates. For the FP assays, a tracer (20 nM Cy5TPD for E. coli and H. influenzae TrmD, 10 nM tracer 4 for S. aureus TrmD) was mixed with the respective enzyme (2 μM E. coli TrmD, 2 μM H. influenzae TrmD, 500 nM S. aureus TrmD) in buffer (E. coli and H. influenzae TrmD: 50 mM HEPES, 500 mM NaCl, 5% Glycerol, pH 7.5, S. aureus TrmD: 40 mM Tris HCl, 100 mM NaCl, 10 mM MgCl2, 5% Glycerol, pH 7.5). The compounds were added in varying concentrations for K D-value determination. […] The Z-factor for tracer 4 was determined by measuring 48 replicates of the free tracer (positive controls, PC) and 48 replicates of a mixture of enzyme and tracer (negative controls, NC). The Z-factor is defined in terms of the means (μ) and standard deviations (σ) of the positive and negative controls and calculated as Z = 1–(3*(σnc + σpc)/(μnc–μpc)). […] Polarization values (mP) were determined from polarization-specific parallel and orthogonal fluorescence intensities. K D-values were calculated in GraphPad Prism 8.0.1 using the four-parameter Hill equation: y(% tracer bound) = bottom + ([ligand]-slope) × (top–bottom)/([ligand]-slope + K Dslope).
A commercial azide diversity library (Enamine) containing 320 azides at a concentration of 100 mM in DMSO in a 96-well tube rack was employed for this nanoSAR study. For the reaction of the azides with alkyne 7 via CuAAC, a master mix was prepared. […] The solvents were degassed with argon to avoid oxidation of the copper(I) during the reaction. To each well of a 96-well PCR plate (Applied Biosystems MicroAmp) were added 23 μL of the master mix and 1 μL of the 100 mM azide stock. The final concentrations in the Mastermix were: 8.7 mM sodium ascorbate (8.3 mM in reaction well), 1.1 mM TBTA (1.0 mM in reaction well), 4.3 mM 7 (4.1 mM in reaction well), 1.3 mM CuSO4×5 H2O (1.2 mM in reaction well).
In the case of `C[C@H](N)Cn1cc(-c2c[nH]c3nc[nH]c(=O)c23)nn1` [Compound 02F09, O=C1NC=NC2=C1C(C3=CN(C[C@@H](N)C)N=N3)=CN2], the “% displaced tracer” value is reported as 26%. For `C[C@H](N)Cn1cc(-c2c[nH]c3nc[nH]c(=O)c23)nn1` [Compound 03F01, O=C1NC=NC=2NC=C(C=3N=NN(C3)C[C@@H]([NH3+])C)C12], the “% displaced tracer” value was 56%.

Same assay, conditions: crude triazole at 1 μM, assuming full conversion; 500 nM TrmD, 10 nM tracer 4; read-out: % displaced tracer
Work on `O=c1[nH]cnc2[nH]cc(-c3cn(-c4ccccc4)nn3)c12` [Compound 04F04, O=C1NC=NC=2NC=C(C=3N=NN(c4ccccc4)C3)C12] yielded an inhibition at 1 µM of 33%. For `COc1cccc(-n2cc(-c3c[nH]c4nc[nH]c(=O)c34)nn2)c1` [Compound 03G01, O=C1NC=NC=2NC=C(C=3N=NN(c4cc(OC)ccc4)C3)C12], the inhibition at 1 µM was 11%. Work on `O=c1[nH]cnc2[nH]cc(-c3cn(CCO[C@H]4CCOC4)nn3)c12` [Compound 02B12, O=C1NC=NC=2NC=C(C=3N=NN(C3)CCO[C@@H]4COCC4)C12] yielded an inhibition at 1 µM of 56%. In the case of `Cc1cc(F)cc(-n2cc(-c3c[nH]c4nc[nH]c(=O)c34)nn2)c1` [Compound 03C04, Fc1cc(N2N=NC(C=3C=4C(=O)NC=NC4NC3)=C2)cc(c1)C], the inhibition at 1 µM is reported as 17%. `COC(=O)c1csc(Cn2cc(-c3c[nH]c4nc[nH]c(=O)c34)nn2)n1` [Compound 03G08, S1C(=NC(C(=O)OC)=C1)CN2N=NC(C=3C=4C(=O)NC=NC4NC3)=C2] was tested, and the inhibition at 1 µM was 10%. `CN(C)CCCn1cc(-c2c[nH]c3nc[nH]c(=O)c23)nn1` [Compound 01E08, O=C1NC=NC=2NC=C(C=3N=NN(C3)CCC[NH+](C)C)C12] gave an inhibition at 1 µM of 35%. Molecule `O=C1CC[C@@H](Cn2cc(-c3c[nH]c4nc[nH]c(=O)c34)nn2)O1` [Compound 04E02, O=C1O[C@H](CN2N=NC(C=3C=4C(=O)NC=NC4NC3)=C2)CC1] has an inhibition at 1 µM of 22%. For `Cc1ccc2nc(Cn3cc(-c4c[nH]c5nc[nH]c(=O)c45)nn3)cn2c1` [Compound 01B02, O=C1NC=NC=2NC=C(C=3N=NN(C3)CC=4N=C5N(C4)C=C(C=C5)C)C12], the inhibition at 1 µM was 57%. `O=c1[nH]cnc2[nH]cc(-c3cn([C@H](CC4CCCCC4)c4ncccn4)nn3)c12` [Compound 02G07, O=C1NC=NC=2NC=C(C=3N=NN(C3)[C@@H](c4ncccn4)CC5CCCCC5)C12] gave an inhibition at 1 µM of 30%. `CC(C)(C)OC(=O)NC[C@@]1(Cn2cc(-c3c[nH]c4nc[nH]c(=O)c34)nn2)CC12CCC2` [Compound 02E10, O=C(OC(C)(C)C)NC[C@@]1(C2(C1)CCC2)CN3N=NC(C=4C=5C(=O)NC=NC5NC4)=C3] was tested, and the inhibition at 1 µM was 23%. With `Cc1ccc(-n2cc(-c3c[nH]c4nc[nH]c(=O)c34)nn2)nc1` [Compound 03F10, O=C1NC=NC=2NC=C(C=3N=NN(c4ncc(cc4)C)C3)C12] the inhibition at 1 µM was 18%. `C[C@H](c1ccc(Cl)cc1)n1cc(-c2c[nH]c3nc[nH]c(=O)c23)nn1` [Compound 02H11, Clc1ccc(cc1)[C@H](N2N=NC(C=3C=4C(=O)NC=NC4NC3)=C2)C] gave an inhibition at 1 µM of 41%. `O=c1[nH]cnc2[nH]cc(-c3cn(CCOC4CCSCC4)nn3)c12` [Compound 01H07, S1CCC(OCCN2N=NC(C=3C=4C(=O)NC=NC4NC3)=C2)CC1] was tested, and the inhibition at 1 µM was 54%. `O=c1[nH]cnc2[nH]cc(-c3cn(C[C@H]4C[C@@H]5C[C@@H]5C4)nn3)c12` [Compound 03A08, O=C1NC=NC=2NC=C(C=3N=NN(C3)C[C@@H]4C[C@@H]5[C@@H](C5)C4)C12] was tested, and the inhibition at 1 µM was 76%. In the case of `O=C1NCCCC[C@H]1n1cc(-c2c[nH]c3nc[nH]c(=O)c23)nn1` [Compound 03A05, O=C1NC=NC=2NC=C(C=3N=NN(C3)[C@H]4C(=O)NCCCC4)C12], the inhibition at 1 µM is reported as 40%. With `O=c1[nH]cnc2[nH]cc(-c3cn(CC4CC(F)(F)C4)nn3)c12` [Compound 02G04, F[C@@]1(F)C[C@@H](CN2N=NC(C=3C=4C(=O)NC=NC4NC3)=C2)C1] the inhibition at 1 µM was 15%. `O=c1[nH]cnc2[nH]cc(-c3cn([C@@H]4CCOC4)nn3)c12` [Compound 03E01, O=C1NC=NC=2NC=C(C=3N=NN(C3)[C@H]4COCC4)C12] gave an inhibition at 1 µM of 27%. `NC(=O)C1(n2cc(-c3c[nH]c4nc[nH]c(=O)c34)nn2)CC1` [Compound 04H02, O=C1NC=NC=2NC=C(C=3N=NN(C3)C4(C(=O)N)CC4)C12] gave an inhibition at 1 µM of 33%. In the case of `O=c1[nH]cnc2[nH]cc(-c3cn([C@@H]4CCc5c(F)cccc54)nn3)c12` [Compound 03H04, Fc1c2c(ccc1)[C@H](N3N=NC(C=4C=5C(=O)NC=NC5NC4)=C3)CC2], the inhibition at 1 µM is reported as 68%. `CS(=O)(=O)NCCn1cc(-c2c[nH]c3nc[nH]c(=O)c23)nn1` [Compound 01F03, S(=O)(=O)(NCCN1N=NC(C=2C=3C(=O)NC=NC3NC2)=C1)C] was tested, and the inhibition at 1 µM was 62%. In the case of `COc1ccccc1[C@H](O)Cn1cc(-c2c[nH]c3nc[nH]c(=O)c23)nn1` [Compound 03G07, O=C1NC=NC=2NC=C(C=3N=NN(C3)C[C@@H](O)c4c(OC)cccc4)C12], the inhibition at 1 µM is reported as 37%. `O=c1[nH]cnc2[nH]cc(-c3cn(-c4ccc(CO)cc4)nn3)c12` [Compound 04B03, O=C1NC=NC=2NC=C(C=3N=NN(c4ccc(cc4)CO)C3)C12] gave an inhibition at 1 µM of 47%. With `N#CC1(Cn2cc(-c3c[nH]c4nc[nH]c(=O)c34)nn2)CCCCC1` [Compound 03E07, O=C1NC=NC=2NC=C(C=3N=NN(C3)CC4(C#N)CCCCC4)C12] the inhibition at 1 µM was 69%. With `CCNCCn1cc(-c2c[nH]c3nc[nH]c(=O)c23)nn1` [Compound 03E05, O=C1NC=NC=2NC=C(C=3N=NN(C3)CC[NH2+]CC)C12] the inhibition at 1 µM was 87%. With `O=c1[nH]cnc2[nH]cc(-c3cn(C4CCCCC4)nn3)c12` [Compound 02A08, O=C1NC=NC=2NC=C(C=3N=NN(C3)C4CCCCC4)C12] the inhibition at 1 µM was 11%. `CN(CCn1cc(-c2c[nH]c3nc[nH]c(=O)c23)nn1)Cc1cccc(F)c1` [Compound 02H12, Fc1cc(ccc1)C[N@H+](CCN2N=NC(C=3C=4C(=O)NC=NC4NC3)=C2)C] showed an inhibition at 1 µM of 65%. Molecule `O=c1[nH]cnc2[nH]cc(-c3cn(C4(C(F)F)CC4)nn3)c12` [Compound 02A12, FC(F)C1(N2N=NC(C=3C=4C(=O)NC=NC4NC3)=C2)CC1] has an inhibition at 1 µM of 18%. Work on `COC(=O)[C@@H]1CCC[C@H](n2cc(-c3c[nH]c4nc[nH]c(=O)c34)nn2)C1` [Compound 01D01, O=C(OC)[C@H]1C[C@@H](N2N=NC(C=3C=4C(=O)NC=NC4NC3)=C2)CCC1] yielded an inhibition at 1 µM of 33%. With `O=c1[nH]cnc2[nH]cc(-c3cn(CCCN4CCCOCC4)nn3)c12` [Compound 02A10, O=C1NC=NC=2NC=C(C=3N=NN(C3)CCC[N@@H+]4CCOCCC4)C12] the inhibition at 1 µM was 23%. `CC(C)CN1CCO[C@H](Cn2cc(-c3c[nH]c4nc[nH]c(=O)c34)nn2)C1` [Compound 01G03, O=C1NC=NC=2NC=C(C=3N=NN(C3)C[C@H]4OCC[N@H+](C4)CC(C)C)C12] gave an inhibition at 1 µM of 46%. With `C[C@H]1CCCC[C@]1(C)n1cc(-c2c[nH]c3nc[nH]c(=O)c23)nn1` [Compound 04D02, O=C1NC=NC=2NC=C(C=3N=NN(C3)[C@@]4([C@H](CCCC4)C)C)C12] the inhibition at 1 µM was 27%. `O=c1[nH]cnc2[nH]cc(-c3cn(Cc4ccc(-n5cccn5)cc4)nn3)c12` [Compound 02E09, O=C1NC=NC=2NC=C(C=3N=NN(C3)Cc4ccc(N5N=CC=C5)cc4)C12] showed an inhibition at 1 µM of 62%.
